# Read-outs that look alike come from different tables or passages of the source.
# Assays:
# [1] = system: MCP-1 induced calcium ion influx in THP-1 cells; assay: MCP-1 Induced Calcium Mobilization in THP-1 Cells; type: cell-based; settings: for IC50: 0.2 μM MCP-1, FLIPR, read-out: Inhibition of MCP-1 Induced Calcium Ion Influx IC50; for inhibition at 25 µM: THP-1, test concentration of 25 μM, given where an IC50 value was not obtained, read-out: Inhibition of MCP-1 Induced Calcium Ion Influx, percent inhibition
# Method: THP-1 cells were plated at a density of 8×10^5 cells/mL (100 μL/well) into poly-D lysine coated clear bottom, black 96 well plates. The cells were loaded with 5 μM fluo-3 for 45 minutes. The fluo-3 washed off and cells were incubated with varying concentrations of test compound for 15 minutes. The change in calcium ion concentration upon addition of 0.2 μM MCP-1 was determined using FLIPR and compared to vehicle.
# Table 2 lists IC50 values for inhibition of MCP-1 induced influx of calcium ions.
# [2] = molecular target: T1, CCR2 (Homo sapiens, UniProt P41597); assay: MCP-1 Receptor Binding Assay in THP-1 Cells; settings: for IC50: THP-1 cells, 0.5 nM 125I labeled MCP-1, 2 hours at 30° C., read-out: Inhibition of MCP-1 Binding IC50; for inhibition at 25 µM: test concentration of 25 μM, given where an IC50 value was not obtained, read-out: Inhibition of MCP-1 Binding, percent inhibition
# T1 construct: host or cells: THP-1 cells
# T1 sequence (P41597 1-360 isoform P41597-2): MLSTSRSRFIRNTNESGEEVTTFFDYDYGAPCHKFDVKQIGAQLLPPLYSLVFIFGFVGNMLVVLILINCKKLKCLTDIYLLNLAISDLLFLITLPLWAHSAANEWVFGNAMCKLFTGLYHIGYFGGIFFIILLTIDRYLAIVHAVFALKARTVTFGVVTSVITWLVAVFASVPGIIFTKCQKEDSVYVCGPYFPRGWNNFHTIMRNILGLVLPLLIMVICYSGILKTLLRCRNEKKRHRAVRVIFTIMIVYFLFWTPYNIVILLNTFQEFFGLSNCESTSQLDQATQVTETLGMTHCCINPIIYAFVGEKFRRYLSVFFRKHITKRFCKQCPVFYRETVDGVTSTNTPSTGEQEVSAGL
# How it was run: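 Whole THP-1 cells incubated 2 h at 30° C with 0.5 nM 125I-MCP-1 and varying compound concentrations; bound radioactivity harvested on filters and counted by scintillation. Nonspecific binding with 1 μM cold MCP-1; IC50 for inhibition of binding versus vehicle.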
# [3] = system: MCP-1 induced chemotaxis of THP-1 cells; assay: MCP-1 Induced Chemotaxis in THP-1 Cells; type: cell-based; settings: Homo sapiens, MCP-1 0.01 μg/mL, 3 hours at 37° C., read-out: Inhibition of MCP-1 Induced Chemotaxis IC50
# Method: MCP-1 induced chemotaxis was run in a 24-well chemotaxis chamber. MCP-1 (0.01 μg/mL) was added to the lower chamber and 100 μL of THP-1 cells (1×10^7 cell/mL) was added to the top chamber. Varying concentrations of test compound were added to the top and bottom chambers. Cells were allowed to chemotax for 3 hours at 37° C. and 5% CO2. An aliquot of the cells that had migrated to the bottom chamber was taken and counted then compared to vehicle.
# Table 3 lists IC50 values for inhibition of MCP-1 induced chemotaxis.
# [4] = Homo sapiens, THP-1, THP-1 cells
Compound,"IC50 [1, 4] [nM]",IC50 [2] [nM],IC50 [3] [nM],inhibition at 25 µM [2] [%],inhibition at 25 µM ([1]; Homo sapiens) [%],IC50 ([1]; THP-1 cells) [nM]
COc1ccc(C2CCN(CC(O)C3(O)CCN(C(=O)/C=C/c4cc(F)cc(F)c4)CC3)CC2)cc1 (stereo not drawn) [Compound 94],900,350,100,,,
COc1ccc2[nH]cc(C3CCN(CC(O)C4CCN(C(=O)/C=C/c5cc(F)cc(F)c5)CC4)CC3)c2c1 (stereo not drawn) [Compound 26],370,70,20,,,
COc1ccc(C2CCN(CC(O)C3CCN(C(=O)/C=C/c4cc(F)cc(F)c4)CC3)CC2)cc1 (stereo not drawn) [Compound 12],650,20,7,,,
O=C(/C=C/c1cc(Cl)cc(Cl)c1)N1CCC(O)(C(O)CN2CCC(c3c[nH]c4ccccc34)CC2)CC1 (stereo not drawn) [Compound 73],1,130,30,,,
O=C(/C=C/c1cccc(F)c1)N1CCC(O)(C(O)CN2CCC(c3c[nH]c4ccccc34)CC2)CC1 (stereo not drawn) [Compound 76],165,470,,,,
O=C(/C=C/c1ccsc1)N1CCC(O)(C(O)CN2CCC(c3c[nH]c4ccccc34)CC2)CC1 (stereo not drawn) [Compound 79],7400,810,,,,
"O=C(Nc1ccc(Cl)c(Cl)c1)N1CCC(CC(CO)N2CCC(c3c[nH]c4ccccc34)CC2)CC1 (stereo not drawn) [Compound 58, 4-{3-hydroxy-2-[4-(1H-indol-3-yl)-piperidin-1-yl]-propyl}-piperidine-1-carboxylic acid (3,4-dichloro-phenyl)-amide]",,5000,,,42,
O=C(/C=C/c1cc(F)cc(F)c1)N1CCC(O)(C(O)CN2CCC(c3c[nH]c4ccccc34)CC2)CC1 (stereo not drawn) [Compound 71],200,40,,,,
"COc1ccc(C2CCN(CC(NC(C)=O)C3CCN(C(=O)C=Cc4cc(F)c(F)c(F)c4)CC3)CC2)cc1 (stereo not drawn) [Compound 66, N-(2-[4-(4-methoxy-phenyl)-piperidin-1-yl]-1-{1-[3-(3,4,5-trifluoro-phenyl)-acryloyl]-piperidin-4-yl}-ethyl)-acetamide]",1100,420,,,,
O=C(/C=C/c1ccc(F)c(F)c1)N1CCC(O)(C(O)CN2CCC(O)(c3ccc(F)cc3)CC2)CC1 (stereo not drawn) [Compound 153],,730,,,12,
"OC(CN1CCC(c2c[nH]c3ccccc23)CC1)C1(O)CCN(C(=S)Nc2ccc(Cl)c(Cl)c2)CC1 (stereo not drawn) [Compound 84, 4-hydroxy-4-{1-hydroxy-2-[4-(1H-indol-3-yl)-piperidin-1-yl]-ethyl}-piperidine-1-carbothioic acid (3,4-dichloro-phenyl)-amide]",30,550,,,,
"4-hydroxy-4-{1-hydroxy-2-hydroxy-2-[4-(1H-indol-3-yl)-piperidin-1-yl]-ethyl}-piperidine-1-carboxylic acid (3,5-difluoro-phenyl)-amide [Compound 81]",,2600,,,,1800
"COc1ccc(C2CCN(CC(O)C3CCN(C(=S)Nc4cc(Cl)cc(Cl)c4)CC3)CC2)cc1 (stereo not drawn) [Compound 89, 4-{1-hydroxy-2-[4-(4-methoxy-phenyl)-piperidin-1-yl]-ethyl}-piperidine-1-carbothioic acid (3,5-dichloro-phenyl)-amide]",1800,550,,,,

# Second part, led by results:
"IC50 [1, 4] [nM]",IC50 [2] [nM],IC50 [3] [nM],inhibition at 25 µM [2] [%],Compound,inhibition at 25 µM ([1]; Homo sapiens) [%],IC50 ([1]; THP-1 cells) [nM]
5400,790,,,O=C(/C=C/c1ccc(Cl)c(Cl)c1)N1CCC(O)(C(O)CN2CCC(c3c[nH]c4ccc(N5CCOCC5)cc34)CC2)CC1 (stereo not drawn) [Compound 169],,
,3700,,,O=C(/C=C/c1ccc(F)c(F)c1)N1CCC(O)(C(O)CN2CCC(c3c[nH]c4ccc(N5CCOCC5)cc34)CC2)CC1 (stereo not drawn) [Compound 172],46,
,1100,,,"COc1ccc(C2CCN(CC(O)C3(O)CCN(C(=O)Nc4ccc(F)c(F)c4)CC3)CC2)cc1 (stereo not drawn) [Compound 114, 4-hydroxy-4-{1-hydroxy-2-[4-(4-methoxy-phenyl)-piperidin-1-yl]-ethyl}-piperidine-1-carboxylic acid (3,4-difluoro-phenyl)-amide]",55,
,2400,,,"O=C(Nc1ccc(F)c(F)c1)N1CCC(O)(C(O)CN2CCC(c3ccc(F)cc3)CC2)CC1 (stereo not drawn) [Compound 132, 4-{2-[4-(4-fluoro-phenyl)-piperidin-1-yl]-1-hydroxy-ethyl}-4-hydroxy-piperidine-1-carboxylic acid (3,4-difluoro-phenyl)-amide]",26,
17200,4400,,,O=C(/C=C/c1ccc(Cl)cc1)N1CCC(O)(C(O)CN2CCC(c3c[nH]c4ccc(N5CCOCC5)cc34)CC2)CC1 (stereo not drawn) [Compound 170],,
1200,910,,,O=C(/C=C/c1ccc(F)c(Br)c1)N1CCC(O)(C(O)CN2CCC(c3c[nH]c4ccc(N5CCOCC5)cc34)CC2)CC1 (stereo not drawn) [Compound 173],,
,1900,,,"O=C(Nc1ccc(Cl)c(Cl)c1)N1CCC(O)(C(O)CN2CCC(c3ccc(F)cc3)CC2)CC1 (stereo not drawn) [Compound 134, 4-{2-[4-(4-fluoro-phenyl)-piperidin-1-yl]-1-hydroxy-ethyl}-4-hydroxy-piperidine-1-carboxylic acid (3,4-dichloro-phenyl)-amide]",52,
,500,,,"COc1ccc(C2CCN(CC(O)C3CCN(C(=S)Nc4cccc(OC)c4)CC3)CC2)cc1 (stereo not drawn) [Compound 103, 4-{1-hydroxy-2-[4-(4-methoxy-phenyl)-piperidin-1-yl]-ethyl}-piperidine-1-carbothioic acid (3-methoxy-phenyl)-amide]",,2200
2500,480,,,"COc1ccc(C2CCN(CC(O)C3CCN(C(=S)Nc4cccc(Cl)c4)CC3)CC2)cc1 (stereo not drawn) [Compound 102, 4-{1-hydroxy-2-[4-(4-methoxy-phenyl)-piperidin-1-yl]-ethyl}-piperidine-1-carbothioic acid (3-chloro-phenyl)-amide]",,
5400,4900,,,"OC(CN1CCC(c2c[nH]c3ccc(N4CCOCC4)cc23)CC1)C1(O)CCN(C(=S)Nc2cc(Cl)cc(Cl)c2)CC1 (stereo not drawn) [Compound 182, 4-hydroxy-4-{1-hydroxy-2-[4-(5-morpholin-4-yl-1H-indol-3-yl)-piperidin-1-yl]-ethyl}-piperidine-1-carbothioic acid (3,5-dichloro-phenyl)-amide]",,
,,,59,O=C(/C=C/c1ccsc1)N1CCC(O)(C(O)CN2CCC(c3c[nH]c4ccc(N5CCOCC5)cc34)CC2)CC1 (stereo not drawn) [Compound 178],2,
,,,50,"OC(CN1CCC(c2nc3ccccc3[nH]2)CC1)C1(O)CCN(c2nccc(C(F)(F)F)n2)CC1 (stereo not drawn) [Compound 121, 4-{2-[4-(1H-benzoimidazol-2-yl)-piperidin-1-yl]-1-hydroxy-ethyl}-1-(4-trifluoromethyl-pyrimidin-2-yl)-piperidin-4-ol]",65,
3100,1300,,,"COc1ccc(C2CCN(CC(O)C3(O)CCN(C(=S)Nc4cc(Cl)cc(Cl)c4)CC3)CC2)cc1 (stereo not drawn) [Compound 118, 4-hydroxy-4-{1-hydroxy-2-[4-(4-methoxy-phenyl)-piperidin-1-yl]-ethyl}-piperidine-1-carbothioic acid (3,5-dichloro-phenyl)-amide]",,
,1400,,,COc1ccc(C2CCN(CC(O)C3(O)CCN(C(=O)/C=C/c4cccc(C)c4)CC3)CC2)cc1 (stereo not drawn) [Compound 95],53,
310,920,,,O=C(/C=C/c1ccc(Cl)c(Cl)c1)N1CCC(O)(C(O)CN2CCC(c3ccc(C(F)(F)F)cc3)CC2)CC1 (stereo not drawn) [Compound 139],,

# Source: US20070197590A1, “SUBSTITUTED DIPIPERIDINE CCR2 ANTAGONISTS” (priority 2006, published 2007)
